From patent publication US7179926B2, “Aryloxyalkylamine NK-1/SSRI inhibitors” (Bristol-Myers Squibb Company, priority 2004, dated 2007)

Tests used:
[1] = target: T1, human serotonin transporters (Homo sapiens, UniProt P31645); assay: Serotonin transporter binding assay ([3H]-citalopram competition, HEK-hSERT cell membranes); conditions: 1 nM [3H]-citalopram, 1 hr at 25° C., read-out: SERT IC50
T1 construct: expressed in transfected cells
Experimental: Serotonin transporter binding assay. HEK-293 cells that stably express human serotonin transporters (HEK-hSERT cells) were grown at 37° C. in 5% CO2 as a monolayer in medium consisting of EMEM supplemented with 10% fetal bovine serum and G418 sulfate (500 μg/ml). To prepare membranes for radioligand binding experiments, cells were rinsed twice with phosphate-buffered saline (138 mM NaCl, 4.1 mM KCl, 5.1 mM Na2PO4, 1.5 mM KH2PO4, 11.1 mM glucose, pH 7.4). Cells were transferred from plates to polypropylene tubes (16×100 mm), centrifuged at 1,200×g for 5 min and were frozen at −80° C. until assay. Following centrifugation, pellets were resuspended by homogenization in buffer consisting of 50 mM Tris (pH 7.7 at 25° C.), 120 mM NaCl and 5 mM KCl and then centrifuged at 32,000×g for 10 min. Following centrifugation, supernatants were discarded and pellets were resuspended in buffer consisting of 50 mM Tris (pH 7.4 at 25° C.), 150 mM NaCl and 5 mM KCl. Membrane homogenates (200 μl/plate) were incubated with 1 nM [^3H]-citalopram (specific activity=85 Ci/mmol) and increasing concentrations of test compounds for 1 hr at 25° C. in a total volume of 250 μl. The assay buffer consisted of 50 mM Tris (pH 7.4 at 25° C.), 120 mM NaCl and 5 mM KCl (pH 7.4 with conc. HCl). Plates were incubated for 1 hr at 25° C., then filtered through 0.5% PEI treated Whatman GF/B filters using a Brandel cell harvester. Filters were washed three times with 3 ml of ice-cold tris wash buffer. Non-specific binding was defined with 10 μM fluoxetine. Amount of radioligand bound in the presence and absence of competitor was analyzed by plotting (−)log drug concentration versus the amount of radioligand specifically bound. The midpoint of the displacement curve (IC50, nM), signifies the potency. Ki values can be calculated using the method of Cheng and Prusoff (Cheng and Prusoff, Biochemical Pharmacology, Vol 22, pp. 3099–3108, Pergamon Press (1973)).

[2] = target: T2, neurokinin-1 (NK-1) receptor (Homo sapiens, UniProt P25103); assay: NK-1 Binding assay ([125I] Substance P competition, U373 cell membranes); conditions: Bolton Hunter labeled [125I] Substance P, 30 min at 20° C.
T2 construct: endogenously expresses the neurokinin-1 (NK-1) receptor; endogenous in cells; host or cells: U373 human glioblastoma-astrocytoma cells (membranes)
T2 sequence (P25103 whole entry): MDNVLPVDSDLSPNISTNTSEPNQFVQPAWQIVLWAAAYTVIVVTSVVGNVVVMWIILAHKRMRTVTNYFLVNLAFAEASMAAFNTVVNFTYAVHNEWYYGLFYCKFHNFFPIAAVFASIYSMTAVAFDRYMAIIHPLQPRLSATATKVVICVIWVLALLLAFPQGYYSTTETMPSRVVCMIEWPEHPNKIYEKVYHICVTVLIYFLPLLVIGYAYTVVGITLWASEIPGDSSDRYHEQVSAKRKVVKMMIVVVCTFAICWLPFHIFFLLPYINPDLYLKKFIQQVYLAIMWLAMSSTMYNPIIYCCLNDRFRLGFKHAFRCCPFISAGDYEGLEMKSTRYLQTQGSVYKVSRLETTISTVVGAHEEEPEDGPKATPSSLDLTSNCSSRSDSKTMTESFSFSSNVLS
Experimental: NK-1 Binding assay. U373 cells, a human glioblastoma-astrocytoma cell line that endogenously expresses the neurokinin-1 (NK-1) receptor, were grown in a monolayer culture at 37° C. in 5% CO2 and fed with Minimum Essential Medium (MEM) supplemented with 10% fetal bovine serum. Membranes were prepared as follows: Cells were washed twice with ice-cold phosphate-buffered saline (pH 7.4) and then incubated for 5–10 minutes with ice-cold 10 mM Tris buffer (pH 7.4) containing 5 mM EDTA. Cells were removed from plates, homogenized, and centrifuged at 32,000×g for 20 minutes. The resulting supernatant was discarded, and the pellet resuspended by homogenization in 50 mM Tris buffer (pH 7.4) containing 1 mM EDTA and centrifuged at 32,000×g for 20 minutes. The resulting supernatant was discarded, and the pellet resuspended by homogenization in NK-1 binding assay buffer (50 mM Tris-HCL (pH 7.4), 3 mM MnCl2, 200 μg/ml BSA, 5 μg/ml chymostatin, 40 μg/ml bacitracin and 4 μg/ml leupeptin).
On the day of an experiment the membrane preparation was thawed, homogenized and diluted with NK-1 binding assay buffer to the appropriate concentration. Competition binding assays were performed in 96 well plate format by incubating membranes (5–10 μg/well) with Bolton Hunter labeled [^125I] Substance P, at a concentration of […], and concentrations of drugs ranging from 10000 to 0.01 nM. Samples were incubated for 30 min at 20° C. then filtered through GF/B glass fiber filters (pretreated with 1% polyethyleneimine and 0.3% Triton X-100) using a Brandel cell harvester. The filters were then washed with 10 ml ice cold 50 mM Tris-HCL (pH 7.4) containing 3 mM MgCl2. Non-specific was defined in the presence of 2 μM L-733,060 (a non-peptide NK-1 antagonist). The amount of radioligand bound in the presence and absence of competitor was analyzed by plotting (−)log drug concentration versus the amount of radioligand specifically bound. The midpoint of the displacement curve (IC50, nM), signifies the potency. Ki values can be calculated using the method of Cheng and Prusoff (Cheng and Prusoff, Biochemical Pharmacology, Vol 22, pp. 3099–3108, Pergamon Press (1973)).

T1 sequence (P31645 whole entry): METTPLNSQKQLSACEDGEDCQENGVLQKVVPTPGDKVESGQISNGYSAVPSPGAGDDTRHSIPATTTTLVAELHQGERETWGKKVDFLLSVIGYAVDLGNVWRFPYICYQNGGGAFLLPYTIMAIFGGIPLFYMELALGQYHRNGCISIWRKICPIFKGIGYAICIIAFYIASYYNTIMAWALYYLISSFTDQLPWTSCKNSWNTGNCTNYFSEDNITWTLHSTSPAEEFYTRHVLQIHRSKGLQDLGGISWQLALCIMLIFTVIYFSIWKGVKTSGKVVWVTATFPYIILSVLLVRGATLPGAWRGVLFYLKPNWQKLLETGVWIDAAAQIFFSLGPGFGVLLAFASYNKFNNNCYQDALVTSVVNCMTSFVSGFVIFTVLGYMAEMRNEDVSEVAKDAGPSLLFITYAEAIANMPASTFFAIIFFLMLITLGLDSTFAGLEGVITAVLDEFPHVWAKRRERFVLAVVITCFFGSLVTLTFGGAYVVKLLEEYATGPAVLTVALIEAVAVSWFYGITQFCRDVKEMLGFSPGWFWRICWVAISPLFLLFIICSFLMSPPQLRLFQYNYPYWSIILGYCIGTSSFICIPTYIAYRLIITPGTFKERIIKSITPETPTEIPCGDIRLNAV

Row | IC50 [1] [nM] | IC50 [2] [nM] | SMILES
1 | 1 to 100 | 100 to 300 | COc1ccc(C(O)(CCN)COCc2cc(C(F)(F)F)cc(C(F)(F)F)c2)c(C)c1 (centres unmarked) [Example 28, 1-(3,5-bis(trifluoromethyl)benzyloxy)-4-amino-2-(4-methoxy-2-methylphenyl)butan-2-ol]
2 | 1 to 100 | 1 to 100 | Cc1ccc(F)cc1C(O)(CCN)COCc1cc(C(F)(F)F)cc(C(F)(F)F)c1 (centres unmarked) [Example 29, 1-(3,5-bis(trifluoromethyl)benzyloxy)-4-amino-2-(5-fluoro-2-methylphenyl)butan-2-ol]
3 | 1 to 100 | 1 to 100 | Cc1ccc(C(O)(CCN)COCc2cc(C(F)(F)F)cc(C(F)(F)F)c2)c(C)c1 (centres unmarked) [Example 30, 1-(3,5-bis(trifluoromethyl)benzyloxy)-4-amino-2-(2,4-dimethylphenyl)butan-2-ol]
4 | 1 to 100 | 1 to 100 | Cc1cc(F)ccc1C(O)(CCN)COCc1cc(C(F)(F)F)cc(C(F)(F)F)c1 (centres unmarked) [Example 31, 1-(3,5-bis(trifluoromethyl)benzyloxy)-4-amino-2-(4-fluoro-2-methylphenyl)butan-2-ol]
5 | 1 to 100 | 1 to 100 | Cc1ccc(C(O)(CCN)COCc2cc(C(F)(F)F)cc(C(F)(F)F)c2)cc1C (centres unmarked) [Example 32, 1-(3,5-bis(trifluoromethyl)benzyloxy)-4-amino-2-(3,4-dimethylphenyl)butan-2-ol]
6 | 1 to 100 | 1 to 100 | Cc1ccc(C(O)(CCN)COCc2cc(C(F)(F)F)cc(C(F)(F)F)c2)cc1F (centres unmarked) [Example 33, 1-(3,5-bis(trifluoromethyl)benzyloxy)-4-amino-2-(3-fluoro-4-methylphenyl)butan-2-ol]
7 | 1 to 100 | 1 to 100 | NCCC(O)(COCc1cc(C(F)(F)F)cc(C(F)(F)F)c1)c1cccc2ccccc12 (centres unmarked) [Example 34, 1-(3,5-bis(trifluoromethyl)benzyloxy)-4-amino-2-(naphthalen-1-yl)butan-2-ol]
8 | 100 to 300 | > 300 | CCCc1ccc(C(O)(CCN)COCc2cc(C(F)(F)F)cc(C(F)(F)F)c2)cc1 (centres unmarked) [Example 35, 1-(3,5-bis(trifluoromethyl)benzyloxy)-4-amino-2-(4-propylphenyl)butan-2-ol]
9 | 1 to 100 | 1 to 100 | Cc1c(F)cccc1C(O)(CCN)COCc1cc(C(F)(F)F)cc(C(F)(F)F)c1 (centres unmarked) [Example 36, 1-(3,5-bis(trifluoromethyl)benzyloxy)-4-amino-2-(3-fluoro-2-methylphenyl)butan-2-ol]
10 | 1 to 100 | 1 to 100 | Cc1ccc(C)c(C(O)(CCN)COCc2cc(C(F)(F)F)cc(C(F)(F)F)c2)c1 (centres unmarked) [Example 37, 1-(3,5-bis(trifluoromethyl)benzyloxy)-4-amino-2-(2,5-dimethylphenyl)butan-2-ol]
11 | 1 to 100 | 100 to 300 | CCc1ccc(C(O)(CCN)COCc2cc(C(F)(F)F)cc(C(F)(F)F)c2)cc1 (centres unmarked) [Example 38, 1-(3,5-bis(trifluoromethyl)benzyloxy)-4-amino-2-(4-ethylphenyl)butan-2-ol]
12 | 1 to 100 | 100 to 300 | COc1ccc(C(O)(CCN)COCc2cc(C(F)(F)F)cc(C(F)(F)F)c2)cc1OC (centres unmarked) [Example 39, 1-(3,5-bis(trifluoromethyl)benzyloxy)-4-amino-2-(3,4-dimethoxyphenyl)butan-2-ol]
13 | 1 to 100 | 1 to 100 | Cc1cc(Cl)ccc1C(O)(CCN)COCc1cc(C(F)(F)F)cc(C(F)(F)F)c1 (centres unmarked) [Example 40, 1-(3,5-bis(trifluoromethyl)benzyloxy)-4-amino-2-(4-chloro-2-methylphenyl)butan-2-ol]
14 | 1 to 100 | 1 to 100 | NCCC(O)(COCc1cc(C(F)(F)F)cc(C(F)(F)F)c1)c1ccc(F)cc1 (centres unmarked) [Example 41, 1-(3,5-bis(trifluoromethyl)benzyloxy)-4-amino-2-(4-fluorophenyl)butan-2-ol]
15 | 1 to 100 | 1 to 100 | NCCC(O)(COCc1cc(C(F)(F)F)cc(C(F)(F)F)c1)c1ccc(Cl)cc1 (centres unmarked) [Example 42, 1-(3,5-bis(trifluoromethyl)benzyloxy)-4-amino-2-(4-chlorophenyl)butan-2-ol]
16 | 1 to 100 | 1 to 100 | Cc1ccccc1C(O)(CCN)COCc1cc(C(F)(F)F)cc(C(F)(F)F)c1 (centres unmarked) [Example 43, 1-(3,5-bis(trifluoromethyl)benzyloxy)-4-amino-2-o-tolylbutan-2-ol]
17 | 1 to 100 | 1 to 100 | NCCC(O)(COCc1cc(C(F)(F)F)cc(C(F)(F)F)c1)c1cccs1 (centres unmarked) [Example 44, 1-(3,5-bis(trifluoromethyl)benzyloxy)-4-amino-2-(thiophen-2-yl)butan-2-ol]
18 | 1 to 100 | 1 to 100 | COc1ccccc1C(O)(CCN)COCc1cc(C(F)(F)F)cc(C(F)(F)F)c1 (centres unmarked) [Example 45, 1-(3,5-bis(trifluoromethyl)benzyloxy)-4-amino-2-(2-methoxyphenyl)butan-2-ol]
19 | 1 to 100 | > 300 | COc1ccc(C(O)(CCN)COCc2cc(C(F)(F)F)cc(C(F)(F)F)c2)c(OC)c1 (centres unmarked) [Example 46, 1-(3,5-bis(trifluoromethyl)benzyloxy)-4-amino-2-(2,4-dimethoxyphenyl)butan-2-ol]
20 | > 300 | > 300 | NCCC(O)(COCc1ccccc1)c1ccccc1 (centres unmarked) [Example 47, 4-amino-1-(benzyloxy)-2-phenylbutan-2-ol]
21 | 1 to 100 | > 300 | NCCC(O)(COCc1cccc(Br)c1)c1ccccc1 (centres unmarked) [Example 48, 1-(3-bromobenzyloxy)-4-amino-2-phenylbutan-2-ol]
22 | > 300 | > 300 | NCCC(O)(COCc1ccc(OC(F)(F)F)cc1)c1ccccc1 (centres unmarked) [Example 49, 1-(4-(trifluoromethoxy)benzyloxy)-4-amino-2-phenylbutan-2-ol]
23 | 1 to 100 | > 300 | NCCC(O)(COCc1ccccc1Cl)c1ccccc1 (centres unmarked) [Example 50, 1-(2-chlorobenzyloxy)-4-amino-2-phenylbutan-2-ol]
24 | 1 to 100 | 1 to 100 | NCCC(O)(COCc1cc(F)cc(C(F)(F)F)c1)c1ccccc1 (centres unmarked) [Example 51, 1-(3-fluoro-5-(trifluoromethyl)benzyloxy)-4-amino-2-phenylbutan-2-ol]
25 | 1 to 100 | > 300 | NCCC(O)(COCc1ccccc1Br)c1ccccc1 (centres unmarked) [Example 52, 1-(2-bromobenzyloxy)-4-amino-2-phenylbutan-2-ol]
26 | 1 to 100 | 1 to 100 | Cc1cc(C)cc(COCC(O)(CCN)c2ccccc2)c1 (centres unmarked) [Example 53, 1-(3,5-dimethylbenzyloxy)-4-amino-2-phenylbutan-2-ol]
27 | 1 to 100 | > 300 | NCCC(O)(COCc1ccccc1C(F)(F)F)c1ccccc1 (centres unmarked) [Example 54, 1-(2-(trifluoromethyl)benzyloxy)-4-amino-2-phenylbutan-2-ol]
28 | 100 to 300 | 100 to 300 | NCCC(O)(COCc1cccc(C(F)(F)F)c1)c1ccccc1 (centres unmarked) [Example 55, 1-(3-(trifluoromethyl)benzyloxy)-4-amino-2-phenylbutan-2-ol]
